Experimental findings from ChEMBL document CHEMBL4400577, “Fragment-based Discovery of a Small-Molecule Protein Kinase C-iota Inhibitor Binding Post-kinase Domain Residues” (ACS Med Chem Lett, 2019) are described below.

One data set concerns Huh-7. In words: Antiproliferative activity against human HuH7 cells assessed as cell growth inhibition measured after 72 hrs by CellTiter-Glo luminescent assay. Format: functional. As to conditions: Huh-7, 72 h. (In general: Cellular ATP, detected with luciferase, serves as a proxy for viable cell number.)
Data set [1] addresses T1, Protein kinase C iota type (Homo sapiens, UniProt P41743).
T1 sequence (P41743 whole entry): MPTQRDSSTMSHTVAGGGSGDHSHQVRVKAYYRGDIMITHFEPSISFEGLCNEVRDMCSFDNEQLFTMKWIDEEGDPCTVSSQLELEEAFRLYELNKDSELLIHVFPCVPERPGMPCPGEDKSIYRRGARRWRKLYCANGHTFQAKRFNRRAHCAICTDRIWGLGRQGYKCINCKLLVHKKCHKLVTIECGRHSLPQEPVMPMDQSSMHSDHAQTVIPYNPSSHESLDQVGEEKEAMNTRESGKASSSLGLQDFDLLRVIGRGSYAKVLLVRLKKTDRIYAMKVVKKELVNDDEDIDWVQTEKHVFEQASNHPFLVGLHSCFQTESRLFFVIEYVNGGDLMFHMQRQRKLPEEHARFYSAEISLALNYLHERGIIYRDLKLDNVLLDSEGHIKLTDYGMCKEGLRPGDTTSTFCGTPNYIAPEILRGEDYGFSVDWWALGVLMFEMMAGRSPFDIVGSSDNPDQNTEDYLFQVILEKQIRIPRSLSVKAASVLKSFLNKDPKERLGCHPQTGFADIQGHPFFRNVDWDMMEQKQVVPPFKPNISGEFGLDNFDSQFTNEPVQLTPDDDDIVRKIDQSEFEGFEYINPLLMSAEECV
In words: Inhibition of recombinant human full length N-terminal GST-fused PKCi (1 to 587 residues) expressed in baculovirus expression system using 5-FAM-RFARKGSLRQKNV as substrate measured after 60 mins by caliper microfluidic mobility shift assay.

Data set [2] in a line: Solubility of the compound at pH 7.4. Format: physicochemical. The conditions noted are these: buffer.
Data set [3] in a line: Permeability across apical to basolateral side in human Caco2 cells. It is filed as ADME, cell-based. As to conditions: Caco-2. (In general: Caco-2 monolayers are a common model of the intestinal barrier.)
Data set [4] is described as follows: Clearance in human liver microsomes. As to conditions: read-out: CLH. Format: ADME, Microsome. (Liver microsomes are a subcellular fraction often used to study metabolism.)
Data set [5] can be described thus: Clearance in mouse liver microsomes. Format: ADME, Microsome. As to conditions: read-out: CLH.

In general, GI50 refers to the concentration that inhibits growth by half. A word on the IC50: it is the concentration at which inhibition is half-maximal. Broadly, the solubility is the dissolved amount per volume that the medium holds. A low value points to a poorly soluble substance. As usually defined, the Papp A→B is how fast a substance crosses the layer from the apical side. Read a high Papp A→B as ready permeation.

SMILES strings stand for the structures. ≈ marks a conversion by molar mass, not a printed value.

Turning to `N[C@H](CNc1nc(-c2ccncc2)nc2sc3c(c12)CCCC3)Cc1ccccc1`, in the data set with Huh-7, the GI50 is 3.1 µM.
`Nc1ncc(-c2ccccc2)cc1C(=O)Nc1ccncc1`: the IC50 in data set [1] was 32 µM.
As for `NCc1cccc(-c2cnc(N)c(C(=O)Nc3ccncc3)c2)c1`, the IC50 in data set [1] came to 0.71 µM.
On to `Nc1nccnc1C(=O)Nc1ccc(O)cc1`, for which, in data set [1], the IC50 is 76 µM.
As to `Nc1nccnc1C(=O)Nc1ccncc1`, the IC50 in data set [1] was determined as 23 µM.
Same read-out and setting: for `Cc1cc(NC(=O)c2nccnc2N)cc(C)n1` the value was 263 µM; for `NC(=O)c1cccc(-c2cnc(N)c(C(=O)Nc3ccncc3)c2)c1`, > 384 µM; for `Nc1nccnc1C(=O)Nc1ccnc2[nH]ccc12`, > 384 µM.
As for `Nc1nccnc1C(=O)NCc1ccncc1`, the IC50 in data set [1] is > 384 µM.
As for `Nc1nccnc1C(=O)Nc1ccncc1Br`, in data set [1], the IC50 is > 384 µM.
With `Nc1ncc(-c2cccc(N3CCNCC3)c2)cc1C(=O)Nc1ccncc1`, the IC50 in data set [1] was 0.34 µM. In data set [2], the solubility stood at 164 µg/mL (≈ 438 µM). In data set [3], this molecule yielded an apical-to-basolateral permeability (Papp A→B) of 0.28 ×10⁻⁶ cm/s. Besides, the microsomal CLint is 5.1 µL/min/mg in data set [4] and 71 µL/min/mg in data set [5]. Further, the GI50 with Huh-7 was 11.3 µM.
Consider `Nc1ncc(-c2cccc(N3CCNCC3)c2)nc1C(=O)Nc1ccncc1`, for which the IC50 in data set [1] amounted to 0.27 µM.
Turning to `CCc1cc(NC(=O)c2nccnc2N)ccn1`, in data set [1], the IC50 came to 19.6 µM.
With `Nc1nccnc1C(=O)Nc1cccc(C2CC2)c1`, in data set [1], the IC50 stood at 42.2 µM.
Still for that read-out and setting: next, `Nc1ncccc1C(=O)Nc1ccncc1`: 22 µM; `CC(C)(C)c1cc(NC(=O)c2nccnc2N)ccn1`: 24 µM; `Nc1nccnc1C(=O)Nc1cccnc1`: 77 µM.
`Nc1nccnc1C(=O)Nc1ccnc(Br)c1`: the IC50 in data set [1] was > 384 µM.
Same read-out and setting: for `Nc1ncc(Br)cc1C(=O)Nc1ccncc1` the value was > 384 µM; for `Nc1nccnc1C(=O)Nc1ccc2[nH]ccc2c1`, 34 µM.
